We go through 30 compounds from patent US9902702B2, “Spirocycloheptanes as inhibitors of rock” (BRISTOL-MYERS SQUIBB COMPANY, priority 2014, dated 2018).

The target in this test is ROCK2 (Homo sapiens, UniProt O75116). Put plainly: ROCK assay: phosphorylation of FITC peptide substrate, LABCHIP 3000 mobility shift. The class given is biochemical. Particulars: 5 μM ATP, 1.5 μM peptide substrate; read-out: ROCK2 Activity (ROCK IC50 range). The essentials:
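Rho kinase variant phosphorylates 1.5 μM FITC-AHA-AKRRRLSSLRA-OH with 5 μM ATP in 20 mM HEPES pH 7.5, 20 mM MgCl2, 0.015% Brij-35, 4 mM DTT, DMSO <2%. EDTA stops the reaction, and phospho and non-phospho peptides are resolved by LabChip 3000 mobility shift. IC50 from dose-response curve fit.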

As a reminder, the IC50 is the midpoint of a concentration-inhibition curve.

Chain of ROCK2 (O75116 whole entry, species assumed): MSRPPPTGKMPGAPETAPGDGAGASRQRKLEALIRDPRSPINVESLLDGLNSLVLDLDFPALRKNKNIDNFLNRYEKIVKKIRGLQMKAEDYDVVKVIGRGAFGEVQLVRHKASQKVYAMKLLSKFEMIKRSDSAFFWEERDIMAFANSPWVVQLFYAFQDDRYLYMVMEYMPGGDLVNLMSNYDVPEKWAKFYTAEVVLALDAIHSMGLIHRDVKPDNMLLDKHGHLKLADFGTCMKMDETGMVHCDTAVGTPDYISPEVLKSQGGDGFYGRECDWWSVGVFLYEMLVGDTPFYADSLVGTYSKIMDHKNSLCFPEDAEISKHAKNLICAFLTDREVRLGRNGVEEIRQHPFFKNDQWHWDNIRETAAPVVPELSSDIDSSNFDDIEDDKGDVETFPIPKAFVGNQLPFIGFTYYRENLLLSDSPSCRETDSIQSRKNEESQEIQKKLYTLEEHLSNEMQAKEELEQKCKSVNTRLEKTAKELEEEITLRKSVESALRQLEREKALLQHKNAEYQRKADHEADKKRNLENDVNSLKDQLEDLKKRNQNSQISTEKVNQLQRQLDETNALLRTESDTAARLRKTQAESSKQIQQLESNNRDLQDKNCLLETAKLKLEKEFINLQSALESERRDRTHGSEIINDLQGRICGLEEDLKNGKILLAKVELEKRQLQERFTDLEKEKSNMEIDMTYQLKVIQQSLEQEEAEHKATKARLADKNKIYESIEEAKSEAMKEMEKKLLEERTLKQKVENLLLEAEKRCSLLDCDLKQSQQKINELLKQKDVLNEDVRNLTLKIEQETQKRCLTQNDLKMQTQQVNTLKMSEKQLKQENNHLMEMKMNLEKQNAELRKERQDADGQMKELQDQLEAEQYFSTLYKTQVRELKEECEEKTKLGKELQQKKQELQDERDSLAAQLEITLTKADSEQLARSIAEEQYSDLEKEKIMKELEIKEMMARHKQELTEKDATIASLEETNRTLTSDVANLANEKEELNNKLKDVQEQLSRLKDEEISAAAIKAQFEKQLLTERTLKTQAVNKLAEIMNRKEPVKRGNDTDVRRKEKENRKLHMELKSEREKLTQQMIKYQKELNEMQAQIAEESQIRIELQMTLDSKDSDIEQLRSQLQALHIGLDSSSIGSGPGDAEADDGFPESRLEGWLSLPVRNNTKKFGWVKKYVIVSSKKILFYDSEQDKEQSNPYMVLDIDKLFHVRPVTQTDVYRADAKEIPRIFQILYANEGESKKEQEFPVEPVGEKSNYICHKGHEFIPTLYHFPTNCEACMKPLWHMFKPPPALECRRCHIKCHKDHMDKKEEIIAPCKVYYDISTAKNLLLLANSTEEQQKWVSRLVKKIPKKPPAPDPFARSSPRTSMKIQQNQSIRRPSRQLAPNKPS

Take `O=C(NC1CC2(C1)CC(c1n[nH]c(=O)c3ccccc13)C2)c1cccc(-c2cn[nH]c2)c1` [Example 339, N-((aR)-6-(4-oxo-3,4-dihydrophthalazin-1-yl)spiro[3.3]heptan-2-yl)-3-(1H-pyrazol-4-yl)benzamide]: the IC50 lay in the range of 15.1 to 100 nM.

In the case of `[H][C@]1(c2n[nH]c(=O)c3ccccc32)C[C@]2(C[C@@H](NC(=O)c3cccc(-c4nc(C)cs4)c3)C2)C1` (stereo partly drawn) [Example 340, 3-(4-methylthiazol-2-yl)-N-((aR)-6-(4-oxo-3,4-dihydrophthalazin-1-yl)spiro[3.3]heptan-2-yl)benzamide], the IC50 lay within 5.1 to 15 nM.

For the compound `[H][C@]1(c2n[nH]c(=O)c3ccccc32)C[C@]2(C[C@@H](NC(=O)c3ccc(OC)nc3)C2)C1` (stereo partly drawn) [Example 341, 6-methoxy-N-((aR)-6-(4-oxo-3,4-dihydrophthalazin-1-yl)spiro[3.3]heptan-2-yl)nicotinamide], the IC50 lay in the range of 15.1 to 100 nM.

On to `[H][C@]1(c2n[nH]c(=O)c3ccccc32)C[C@]2(C[C@@H](NC(=O)c3ccc(C(F)(F)F)nc3)C2)C1` (stereo partly drawn) [Example 342, N-((aR)-6-(4-oxo-3,4-dihydrophthalazin-1-yl)spiro[3.3]heptan-2-yl)-6-(trifluoromethyl) nicotinamide], for which the IC50 lay in the range of 100 to 2100 nM.

Regarding `[H][C@]1(c2n[nH]c(=O)c3ccccc32)C[C@]2(C[C@@H](NC(=O)c3ccc(C)nc3O)C2)C1` (stereo partly drawn) [Example 343, 2-hydroxy-6-methyl-N-((aR)-6-(4-oxo-3,4-dihydrophthalazin-1-yl)spiro[3.3]heptan-2-yl)nicotinamide], the IC50 lay in the range of 15.1 to 100 nM.

With `[H][C@]1(c2n[nH]c(=O)c3ccccc32)C[C@]2(C[C@@H](NC(=O)c3ccc(CCN4CCCC4)nc3)C2)C1` (stereo partly drawn) [Example 344, N-((aR)-6-(4-oxo-3,4-dihydrophthalazin-1-yl)spiro[3.3]heptan-2-yl)-6-(2-(pyrrolidin-1-yl)ethyl)nicotinamide], the IC50 fell in the range of 100 to 2100 nM.

In the case of `[H][C@]1(c2n[nH]c(=O)c3ccccc32)C[C@]2(C[C@@H](NC(=O)c3ccc(-c4nn[nH]n4)cc3)C2)C1` (stereo partly drawn) [Example 345, N-((aR)-6-(4-oxo-3,4-dihydrophthalazin-1-yl)spiro[3.3]heptan-2-yl)-4-(2H-tetrazol-5-yl)benzamide], the IC50 is 100 to 2100 nM.

In the case of `[H][C@]1(c2n[nH]c(=O)c3ccccc32)C[C@]2(C[C@@H](NC(=O)c3ccc(-n4cccn4)nc3)C2)C1` (stereo partly drawn) [Example 346, N-((aR)-6-(4-oxo-3,4-dihydrophthalazin-1-yl)spiro[3.3]heptan-2-yl)-6-(1H-pyrazol-1-yl)nicotinamide], the IC50 is 15.1 to 100 nM.

On to `[H][C@]1(c2n[nH]c(=O)c3ccccc32)C[C@]2(C[C@@H](NC(=O)c3cnc(O)c(Cl)c3)C2)C1` (stereo partly drawn) [Example 347, 5-chloro-6-hydroxy-N-((aR)-6-(4-oxo-3,4-dihydrophthalazin-1-yl)spiro[3.3]heptan-2-yl)nicotinamide], for which the IC50 lay in the range of 100 to 2100 nM.

For the compound `[H][C@]1(c2n[nH]c(=O)c3ccccc32)C[C@]2(C[C@@H](NC(=O)c3ccc(-n4cncn4)cc3)C2)C1` (stereo partly drawn) [Example 348, N-((aR)-6-(4-oxo-3,4-dihydrophthalazin-1-yl)spiro[3.3]heptan-2-yl)-4-(1H-1,2,4-triazol-1-yl)benzamide], the IC50 was 15.1 to 100 nM.

With `[H][C@]1(c2n[nH]c(=O)c3ccccc32)C[C@]2(C[C@@H](NC(=O)c3ccc(-n4cnc(C)c4)c(OC)c3)C2)C1` (stereo partly drawn) [Example 349, 3-methoxy-4-(4-methyl-1H-imidazol-1-yl)-N-((aR)-6-(4-oxo-3,4-dihydrophthalazin-1-yl)spiro[3.3]heptan-2-yl)benzamide], the 50% inhibitory concentration (IC50) is 5.1 to 15 nM.

On to `[H][C@]1(c2n[nH]c(=O)c3ccccc32)C[C@]2(C[C@@H](NC(=O)c3ccc(-c4cnc(C)s4)c(OC)c3)C2)C1` (stereo partly drawn) [Example 350, 3-methoxy-4-(2-methylthiazol-5-yl)-N-((aR)-6-(4-oxo-3,4-dihydrophthalazin-1-yl)spiro[3.3]heptan-2-yl)benzamide], for which the half-maximal inhibitory concentration (IC50) was 2.01 to 5 nM.

In the case of `COc1ccc(C(=O)NC2CC3(C2)CC(c2n[nH]c(=O)c4ccccc24)C3)nc1` [Example 351, 5-methoxy-N-((aR)-6-(4-oxo-3,4-dihydrophthalazin-1-yl)spiro[3.3]heptan-2-yl)picolinamide], the IC50 is 100 to 2100 nM.

Regarding `[H][C@]1(c2n[nH]c(=O)c3ccccc32)C[C@]2(C[C@@H](NC(=O)c3cccc(-n4ccnc4)c3)C2)C1` (stereo partly drawn) [Example 352, 3-(1H-imidazol-1-yl)-N-((aR)-6-(4-oxo-3,4-dihydrophthalazin-1-yl)spiro[3.3]heptan-2-yl)benzamide], the IC50 was 15.1 to 100 nM.

`[H][C@]1(c2n[nH]c(=O)c3ccccc32)C[C@]2(C[C@@H](NC(=O)c3ccc(OC(C)C)c(C#N)c3)C2)C1` (stereo partly drawn) [Example 353, 3-cyano-4-isopropoxy-N-((aR)-6-(4-oxo-3,4-dihydrophthalazin-1-yl)spiro[3.3]heptan-2-yl)benzamide]: the IC50 fell in the range of 5.1 to 15 nM.

As to `[H][C@]1(c2n[nH]c(=O)c3ccccc32)C[C@]2(C[C@@H](NC(=O)c3cccc(OC(F)F)c3)C2)C1` (stereo partly drawn) [Example 354, 3-(difluoromethoxy)-N-((aR)-6-(4-oxo-3,4-dihydrophthalazin-1-yl)spiro[3.3]heptan-2-yl)benzamide], the IC50 lay within 5.1 to 15 nM.

Regarding `[H][C@]1(c2n[nH]c(=O)c3ccccc32)C[C@]2(C[C@@H](NC(=O)C3=C(OCC)C(=O)N(CC(F)(F)F)C3)C2)C1` (stereo partly drawn) [Example 355, 4-ethoxy-5-oxo-N-((aR)-6-(4-oxo-3,4-dihydrophthalazin-1-yl)spiro[3.3]heptan-2-yl)-1-(2,2,2-trifluoroethyl)-2,5-dihydro-1H-pyrrole-3-carboxamide], the IC50 was 15.1 to 100 nM.

Regarding `[H][C@]1(c2n[nH]c(=O)c3ccccc32)C[C@]2(C[C@@H](NC(=O)c3ccc(N(C)C)nc3)C2)C1` (stereo partly drawn) [Example 356, 6-(dimethylamino)-N-((aR)-6-(4-oxo-3,4-dihydrophthalazin-1-yl)spiro[3.3]heptan-2-yl)nicotinamide], the IC50 is 15.1 to 100 nM.

Regarding `[H][C@]1(c2n[nH]c(=O)c3ccccc32)C[C@]2(C[C@@H](NC(=O)c3ccc(-c4cc[nH]n4)cc3)C2)C1` (stereo partly drawn) [Example 357, N-((aR)-6-(4-oxo-3,4-dihydrophthalazin-1-yl)spiro[3.3]heptan-2-yl)-4-(1H-pyrazol-3-yl)benzamide], the IC50 was 15.1 to 100 nM.

Take `[H][C@]1(c2n[nH]c(=O)c3ccccc32)C[C@]2(C[C@@H](NC(=O)c3ccc(-c4cnco4)cc3)C2)C1` (stereo partly drawn) [Example 358, 4-(oxazol-5-yl)-N-((aR)-6-(4-oxo-3,4-dihydrophthalazin-1-yl)spiro[3.3]heptan-2-yl)benzamide]: the IC50 was 15.1 to 100 nM.

In the case of `[H][C@]1(c2n[nH]c(=O)c3ccccc32)C[C@]2(C[C@@H](NC(=O)c3ccc(-n4ccnc4)cc3)C2)C1` (stereo partly drawn) [Example 359, 4-(1H-imidazol-1-yl)-N-((aR)-6-(4-oxo-3,4-dihydrophthalazin-1-yl)spiro[3.3]heptan-2-yl)benzamide], the IC50 was 100 to 2100 nM.

For the compound `[H][C@]1(c2n[nH]c(=O)c3ccccc32)C[C@]2(C[C@@H](NC(=O)c3ccc(-c4noc(C)n4)cc3)C2)C1` (stereo partly drawn) [Example 360, 4-(5-methyl-1,2,4-oxadiazol-3-yl)-N-((aR)-6-(4-oxo-3,4-dihydrophthalazin-1-yl)spiro[3.3]heptan-2-yl)benzamide], the IC50 lay within 15.1 to 100 nM.

For the compound `[H][C@]1(c2n[nH]c(=O)c3ccccc32)C[C@]2(C[C@@H](NC(=O)c3cccc(-c4cc[nH]n4)c3)C2)C1` (stereo partly drawn) [Example 361, N-((aR)-6-(4-oxo-3,4-dihydrophthalazin-1-yl)spiro[3.3]heptan-2-yl)-3-(1H-pyrazol-3-yl)benzamide], the half-maximal inhibitory concentration (IC50) was in the range of 5.1 to 15 nM.

As for `[H][C@]1(c2n[nH]c(=O)c3ccccc32)C[C@]2(C[C@@H](NC(=O)c3cn4cccc(C)c4n3)C2)C1` (stereo partly drawn) [Example 362, 8-methyl-N-((aR)-6-(4-oxo-3,4-dihydrophthalazin-1-yl)spiro[3.3]heptan-2-yl)imidazo[1,2-a]pyridine-2-carboxamide], the IC50 lay in the range of 15.1 to 100 nM.

On to `[H][C@]1(c2n[nH]c(=O)c3ccccc32)C[C@]2(C[C@@H](NC(=O)c3cn4cc(Br)ccc4n3)C2)C1` (stereo partly drawn) [Example 363, 6-bromo-N-((aR)-6-(4-oxo-3,4-dihydrophthalazin-1-yl)spiro[3.3]heptan-2-yl)imidazo[1,2-a]pyridine-2-carboxamide], for which the IC50 is 15.1 to 100 nM.

Consider `[H][C@]1(c2n[nH]c(=O)c3ccccc32)C[C@]2(C[C@@H](NC(=O)c3cn(C)c4ccccc34)C2)C1` (stereo partly drawn) [Example 364, 1-methyl-N-((aR)-6-(4-oxo-3,4-dihydrophthalazin-1-yl)spiro[3.3]heptan-2-yl)-1H-indole-3-carboxamide], for which the IC50 lay in the range of 5.1 to 15 nM.

Regarding `[H][C@]1(c2n[nH]c(=O)c3ccccc32)C[C@]2(C[C@@H](NC(=O)c3nc(-c4ccncc4)sc3C)C2)C1` (stereo partly drawn) [Example 365, 5-methyl-N-((aR)-6-(4-oxo-3,4-dihydrophthalazin-1-yl)spiro[3.3]heptan-2-yl)-2-(pyridin-4-yl)thiazole-4-carboxamide], the IC50 is 15.1 to 100 nM.

`[H][C@]1(c2n[nH]c(=O)c3ccccc32)C[C@]2(C[C@@H](NC(=O)c3ccc4cnn(C)c4c3)C2)C1` (stereo partly drawn) [Example 366, 1-methyl-N-((aR)-6-(4-oxo-3,4-dihydrophthalazin-1-yl)spiro[3.3]heptan-2-yl)-1H-indazole-6-carboxamide]: the IC50 was 5.1 to 15 nM.

On to `[H][C@]1(c2n[nH]c(=O)c3ccccc32)C[C@]2(C[C@@H](NC(=O)c3ccc4ccn(C)c4c3)C2)C1` (stereo partly drawn) [Example 367, 1-methyl-N-((aR)-6-(4-oxo-3,4-dihydrophthalazin-1-yl)spiro[3.3]heptan-2-yl)-1H-indole-6-carboxamide], for which the IC50 was 5.1 to 15 nM.

Consider `[H][C@]1(c2n[nH]c(=O)c3ccccc32)C[C@]2(C[C@@H](NC(=O)c3ccc4c(ccn4C)c3)C2)C1` (stereo partly drawn) [Example 368, 1-methyl-N-((aR)-6-(4-oxo-3,4-dihydrophthalazin-1-yl)spiro[3.3]heptan-2-yl)-1H-indole-5-carboxamide], for which the IC50 was 5.1 to 15 nM.
